From patent US12673947B2 (Cytosinlab Therapeutics Co., Ltd., priority 2020, dated 2026)

Legend:
FLT3 = target: T1, FLT3 (Homo sapiens, UniProt P36888); assay: FLT3 kinase in vitro inhibitory activity experiment (Caliper mobility shift, conversion rate); assay type: biochemical; settings: IC50 class, read-out: Enzyme activity FLT3
T1 construct: purchased Carna 08-145
T1 sequence (P36888 27-993): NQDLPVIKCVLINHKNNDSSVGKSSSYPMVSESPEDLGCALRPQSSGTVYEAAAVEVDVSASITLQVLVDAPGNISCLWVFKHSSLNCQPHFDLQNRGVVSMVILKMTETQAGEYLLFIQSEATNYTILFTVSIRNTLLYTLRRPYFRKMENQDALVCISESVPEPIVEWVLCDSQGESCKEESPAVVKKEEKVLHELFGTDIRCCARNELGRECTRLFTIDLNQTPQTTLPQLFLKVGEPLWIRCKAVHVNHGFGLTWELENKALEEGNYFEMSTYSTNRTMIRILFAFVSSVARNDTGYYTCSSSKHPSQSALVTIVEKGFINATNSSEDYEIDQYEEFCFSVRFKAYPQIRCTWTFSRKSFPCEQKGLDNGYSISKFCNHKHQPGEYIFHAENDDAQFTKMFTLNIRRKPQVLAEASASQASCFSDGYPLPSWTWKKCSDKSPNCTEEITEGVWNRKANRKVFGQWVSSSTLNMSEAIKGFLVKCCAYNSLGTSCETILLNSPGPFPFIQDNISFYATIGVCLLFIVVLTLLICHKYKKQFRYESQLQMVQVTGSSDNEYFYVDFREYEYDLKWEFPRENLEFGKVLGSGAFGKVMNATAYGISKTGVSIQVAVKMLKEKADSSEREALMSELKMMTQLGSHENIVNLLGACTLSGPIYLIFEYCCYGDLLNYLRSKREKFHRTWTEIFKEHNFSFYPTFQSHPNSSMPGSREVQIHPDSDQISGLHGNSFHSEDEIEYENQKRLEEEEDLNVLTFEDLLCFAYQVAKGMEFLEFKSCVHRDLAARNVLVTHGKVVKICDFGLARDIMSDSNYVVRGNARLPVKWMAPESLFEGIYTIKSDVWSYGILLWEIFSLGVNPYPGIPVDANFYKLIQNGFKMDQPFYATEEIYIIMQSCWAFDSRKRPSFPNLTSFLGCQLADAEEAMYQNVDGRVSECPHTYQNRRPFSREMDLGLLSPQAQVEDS
Outline: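 Tested in single wells as ten 3-fold dilutions of a 1 μM initial stock. Compound and FLT3 stood 10 min at room temperature; ATP with Kinase substrate 2 was then added for 30 min at room temperature and the reaction stopped. Conversion was measured by Caliper mobility shift, and inhibition was normalised to control-well conversion.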

MV4;11 cells = assay: MV4;11 in vitro inhibition of proliferation assay (CellTiter-Glo, 72 hours); assay type: cell-based; settings: Homo sapiens, MV4-11, 72 h, IC50 class, read-out: Inhibitory activity of cell proliferation MV4;11
Outline: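 IC50 came from four-parameter fitting of inhibition rates, based on CellTiter-Glo luminescence after 72 hours at 37° C. Each well held 2000 MV4;11 cells grown in IMDM with 10% serum. Compounds formed a nine-point, threefold DMSO series starting at 10 uM, tested in triplicate at 0.3% final DMSO.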

| IC50 (FLT3) [nM] | IC50 (MV4;11 cells) [nM] | Compound |
| --- | --- | --- |
| ≤ 10 | 10 to 100 | CCc1nc2c(N)ncc(-c3cnn(C4CCNCC4)c3)c2nc1NC1CCC(O)C1 (centres unmarked) [Compound 206] |
| ≤ 10 | ≤ 10 | CCc1nc2c(N)ncc(-c3cnn(C4CCN(CCO)CC4)c3)c2nc1N[C@@H]1CC[C@H](O)C1 [Compound 207, (1S,3R)-3-((5-amino-3-ethyl-8-(1-(1-(2-hydroxyethyl)piperidin-4-yl)-1H-pyrazol-4-yl)pyridino[3,4-b]pyrazin-2-yl)amino)cyclopentan-1-ol] |
| ≤ 10 | ≤ 10 | CCc1nc2c(N)ncc(-c3cnn(C4CCN(C5CCOCC5)CC4)c3)c2nc1N[C@@H]1CC[C@H](O)C1 [Compound 208] |
| ≤ 10 | ≤ 10 | CCc1nc2c(N)ncc(-c3cnn(C4CCN(C5COC5)CC4)c3)c2nc1N[C@@H]1CC[C@H](O)C1 [Compound 209] |
| ≤ 10 | ≤ 10 | CCc1nc2c(N)ncc(-c3cnn(C4CCN(C5CN(C)C5)CC4)c3)c2nc1N[C@@H]1CC[C@H](O)C1 [Compound 210] |
| ≤ 10 | ≤ 10 | CCc1nc2c(N)ncc(-c3cnn(C4CCN(C5CC5)CC4)c3)c2nc1N[C@@H]1CC[C@H](O)C1 [Compound 211] |
| ≤ 10 | ≤ 10 | CCc1nc2c(N)ncc(-c3cnn(C4CCN(C5CCC5)CC4)c3)c2nc1N[C@@H]1CC[C@H](O)C1 [Compound 212] |
| ≤ 10 | ≤ 10 | CCc1nc2c(N)ncc(-c3cnn(C4CCN(C5CCCC5)CC4)c3)c2nc1N[C@@H]1CC[C@H](O)C1 [Compound 213] |
| ≤ 10 | ≤ 10 | CCc1nc2c(N)ncc(-c3cnn(C4CCN(C5CCCCC5)CC4)c3)c2nc1N[C@@H]1CC[C@H](O)C1 [Compound 214] |
| ≤ 10 | ≤ 10 | CCc1nc2c(N)ncc(-c3cnn(C4CCN(C)CC4)c3)c2nc1N[C@@H]1CC[C@H](O)C1 [Compound 215] |
| ≤ 10 | ≤ 10 | CCc1nc2c(N)ncc(-c3cnn(C4CCN(CC)CC4)c3)c2nc1N[C@@H]1CC[C@H](O)C1 [Compound 216] |
| ≤ 10 | ≤ 10 | CCc1nc2c(N)ncc(-c3cnn(C4CCN(C(C)C)CC4)c3)c2nc1N[C@@H]1CC[C@H](O)C1 [Compound 217] |
| ≤ 10 | ≤ 10 | CCc1nc2c(N)ncc(-c3cnn(C4CCN(CC(F)F)CC4)c3)c2nc1N[C@@H]1CC[C@H](O)C1 [Compound 218] |
| ≤ 10 | ≤ 10 | CCc1nc2c(N)ncc(-c3cnn(C4CCN(CC(F)(F)F)CC4)c3)c2nc1N[C@@H]1CC[C@H](O)C1 [Compound 219] |
| ≤ 10 | ≤ 10 | [2H]C([2H])([2H])N1CCC(n2cc(-c3cnc(N)c4nc(CC)c(N[C@@H]5CC[C@H](O)C5)nc34)cn2)CC1 [Compound 220] |
| ≤ 10 | ≤ 10 | [2H]C([2H])([2H])C(N1CCC(n2cc(-c3cnc(N)c4nc(CC)c(N[C@@H]5CC[C@H](O)C5)nc34)cn2)CC1)C([2H])([2H])[2H] [Compound 221] |
| ≤ 10 | ≤ 10 | [2H]C([2H])([2H])C([2H])(N1CCC(n2cc(-c3cnc(N)c4nc(CC)c(N[C@@H]5CC[C@H](O)C5)nc34)cn2)CC1)C([2H])([2H])[2H] [Compound 222] |
| ≤ 10 | ≤ 10 | CCc1nc2c(N)ncc(-c3cnn(C4CCN(C)CC4)c3)c2nc1N[C@H]1CCOC1 [Compound 223] |
| ≤ 10 | ≤ 10 | CCc1nc2c(N)ncc(-c3cnn(C4CCN(CC)CC4)c3)c2nc1N[C@H]1CCOC1 [Compound 224] |
| ≤ 10 | ≤ 10 | CCc1nc2c(N)ncc(-c3cnn(C4CCN(C(C)C)CC4)c3)c2nc1N[C@H]1CCOC1 [Compound 225] |

| IC50 (FLT3) [nM] | IC50 (MV4;11 cells) [nM] | Compound |
| --- | --- | --- |
| ≤ 10 | ≤ 10 | CCc1nc2c(N)ncc(-c3cnn(C4CCN(C(CC)CC)CC4)c3)c2nc1N[C@H]1CCOC1 [Compound 226] |
| ≤ 10 | ≤ 10 | CCc1nc2c(N)ncc(-c3cnn(C4CCN(C(C)CC)CC4)c3)c2nc1N[C@H]1CCOC1 (some centres unmarked) [Compound 227] |
| ≤ 10 | 10 to 100 | CCc1nc2c(N)ncc(-c3cnn(C4CCN(C5CC5)CC4)c3)c2nc1N[C@H]1CCOC1 [Compound 228] |
| ≤ 10 | ≤ 10 | CCc1nc2c(N)ncc(-c3cnn(C4CCN(C(CC)CC)CC4)c3)c2nc1NC1CCOCC1 [Compound 232, 3-Ethyl-8-(1-(1-(pent-3-yl)piperidin-4-yl)-1H-pyrazol-4-yl)-N2-(tetrahydro-2H-pyran-4-yl)pyridino [3,4-b]pyrazine-2,5-diamine] |
| ≤ 10 | ≤ 10 | CCc1nc2c(N)ncc(-c3cnn(C4CCN(CC(C)(C)O)CC4)c3)c2nc1NC1CCOCC1 [Compound 233] |
| ≤ 10 | ≤ 10 | CCc1nc2c(N)ncc(-c3cnn(C4CCN(C(C)C)CC4)c3)c2nc1NC1CCOCC1 [Compound 234] |
| ≤ 10 | ≤ 10 | CCc1nc2c(N)ncc(-c3cnn(C4CCN(C5CCN(CC)CC5)CC4)c3)c2nc1NC1CCOCC1 [Compound 235] |
| ≤ 10 | 10 to 100 | CCc1nc2c(N)ncc(-c3cnn(C4CCN(C5CCN(C(C)C)CC5)CC4)c3)c2nc1NC1CCOCC1 [Compound 236] |
| ≤ 10 | 10 to 100 | CCc1nc2c(N)ncc(-c3cnn(C4CCN(C5CCOCC5)CC4)c3)c2nc1NC1CCOCC1 [Compound 237] |
| ≤ 10 | 10 to 100 | CCc1nc2c(N)ncc(-c3cnn(C4CCN(C5COC5)CC4)c3)c2nc1NC1CCOCC1 [Compound 238] |
| ≤ 10 | 10 to 100 | CCc1nc2c(N)ncc(-c3cnn(C4CCN(C5CCN(CCO)CC5)CC4)c3)c2nc1NC1CCOCC1 [Compound 239] |
| ≤ 10 | 10 to 100 | CCc1nc2c(N)ncc(-c3cnn(C4CCN(C5CCN(CCOC)CC5)CC4)c3)c2nc1NC1CCOCC1 [Compound 240] |
| ≤ 10 | 10 to 100 | CCc1nc2c(N)ncc(-c3cnn(C4CCN(C5CCN(CC(C)C)CC5)CC4)c3)c2nc1NC1CCOCC1 [Compound 241] |
| ≤ 10 | 10 to 100 | CCc1nc2c(N)ncc(-c3cnn(C4CCN(C5CN(C)C5)CC4)c3)c2nc1NC1CCOCC1 [Compound 242] |
| ≤ 10 | ≤ 10 | CCc1nc2c(N)ncc(-c3cnn(C4CCN(C5CCN(C6CC6)CC5)CC4)c3)c2nc1NC1CCOCC1 [Compound 243] |
| ≤ 10 | 10 to 100 | CCc1nc2c(N)ncc(-c3cnn(C4CCN(C5CCN(CC)CC5)CC4)c3)c2nc1N[C@H]1CCOC1 [Compound 244] |
| ≤ 10 | ≤ 10 | CCc1nc2c(N)ncc(-c3cnn(C4CCN(C5CCN(CC)CC5)CC4)c3)c2nc1N[C@@H]1CC[C@H](O)C1 [Compound 245] |
| ≤ 10 | ≤ 10 | CCc1nc2c(N)ncc(-c3cnn(C4CCN(C5CCN(CC)CC5)CC4)c3)c2nc1NC1CCCC(O)C1 (centres unmarked) [Compound 246, 3-((5-amino-3-ethyl-8-(1-(1′-ethyl-[1,4′-bipiperidine]-4-yl)-1H-pyrazol-4-yl)pyridino[3,4-b]pyrazine-2-yl)amino)cyclohexan-1-ol] |
| ≤ 10 | 10 to 100 | CCc1nc2c(N)ncc(-c3cnn(C4CCN(C5CCN(C)CC5)CC4)c3)c2nc1NC1CCOC1 (centres unmarked) [Compound 247] |
| ≤ 10 | 10 to 100 | CCc1nc2c(N)ncc(-c3cnn(C4CCN(C5CCN(C)CC5)CC4)c3)c2nc1N[C@H]1CCOC1 [Compound 248] |
